Among the data in ChEMBL document CHEMBL1149509, “Search of antitubercular activities in tetrahydroacridines: synthesis and biological evaluation” (Bioorg Med Chem Lett, 2006) are logP and MIC values, retold here.

Each structure is given as a SMILES string. Converted amounts (≈) assume the structure as drawn.

Series [1] is described as follows: Partition coefficient, log P of the compound. The note with it: octanol/water. In kind it is physicochemical.
The subject of series [2] is Mycobacterium tuberculosis. Briefly: Antitubercular activity against Mycobacterium tuberculosis H37Rv. In kind it is functional.
Series [3] deals with Mycobacterium tuberculosis. Briefly: Antitubercular activity against Mycobacterium tuberculosis H37Ra. In kind it is functional.

`c1ccc2c(NCCCCCCCCCCNc3c4c(nc5ccccc35)CCCC4)c3c(nc2c1)CCCC3`: the logP – broadly, a log measure of how a compound divides between an organic and an aqueous phase – in series [1] is 9.24. The values for the minimal inhibitory concentration (MIC) in series [2] and in series [3] were 12.5 µg/mL (≈ 23.4 µM) and 3.12 µg/mL (≈ 5.83 µM), respectively.
`c1ccc2c(NCCCCCNc3c4c(nc5ccccc35)CCCC4)c3c(nc2c1)CCCC3`: the logP in series [1] (read-out: LogP) came out at 7.15. The MIC (as a rule, the lowest concentration that inhibits growth of the organism) in series [2] stood at 12.5 µg/mL (≈ 26.9 µM); in series [3], 25 µg/mL (≈ 53.8 µM).
As for `C=CCc1ccc(Oc2c3c(nc4ccccc24)CCCC3)c(OC)c1`, the logP in series [1] (read-out: LogP) was determined as 6.18. Further, the minimum inhibitory concentration (MIC) in series [2] is above 12.5 µg/mL; in series [3], 25 µg/mL (≈ 72.4 µM).
The like results for `Clc1cccc(CCNc2c3c(nc4ccccc24)CCCC3)c1` were, in that order, 5.78, above 12.5 µg/mL and 25 µg/mL (≈ 74.2 µM).
For `CCCCCCNc1c2c(nc3ccccc13)CCCC2`, in that order: 5.29, 6.25 µg/mL (≈ 22.1 µM) and 6.25 µg/mL (≈ 22.1 µM).
Turning to `c1ccc2c(N3CCOCC3)c3c(cc2c1)CCCC3`, the logP in series [1] (read-out: LogP) was 3.6. Also, the figures for the minimal inhibitory concentration (MIC) in series [2] and in series [3] were 12.5 µg/mL (≈ 46.8 µM) and above 25 µg/mL, respectively.
With `CC[C@@H](CO)NCCN[C@@H](CC)CO` [ETHAMBUTOL], the minimum inhibitory concentration (MIC) in series [2] was determined as 3.25 µg/mL (≈ 15.9 µM).
As for `c1ccc2c(NCCCCCCCNc3c4c(nc5ccccc35)CCCC4)c3c(nc2c1)CCCC3`, in series [1] (read-out: LogP), the logP was determined as 7.99. Also, the MIC in series [2] was 12.5 µg/mL (≈ 25.4 µM); in series [3] it was 6.25 µg/mL (≈ 12.7 µM).
The like results for `OCCNc1c2c(nc3ccccc13)CCCC2` were, in that order, 2.69, 12.5 µg/mL (≈ 51.6 µM) and above 25 µg/mL.
The like results for `c1ccc(CNc2c3c(nc4ccccc24)CCCC3)cc1` were, in that order, 4.94, above 12.5 µg/mL and 25 µg/mL (≈ 86.7 µM).
For `Fc1ccc(Oc2c3c(nc4ccccc24)CCCC3)cc1`, in that order: 5.41, above 12.5 µg/mL and above 25 µg/mL.
On to `Clc1ccc(Oc2c3c(nc4ccccc24)CCCC3)c(Cl)c1`, for which the log partition coefficient (logP) in series [1] (read-out: LogP) was 6.37. The MIC is above 12.5 µg/mL in series [2] and above 25 µg/mL in series [3].
`COc1ccc(Nc2c3c(nc4ccccc24)CCCC3)cc1`: the logP in series [1] (read-out: LogP) turned out to be 5.05. Besides, the minimal inhibitory concentration (MIC) in series [2] was above 12.5 µg/mL; in series [3], above 25 µg/mL.
Consider `CCCCCCCCNc1c2c(nc3ccccc13)CCCC2`, for which the logP in series [1] (read-out: LogP) was found to be 6.12. The values for the MIC in series [2] and in series [3] were 3.12 µg/mL (≈ 10 µM) and 1.56 µg/mL (≈ 5.02 µM), respectively.
For `c1ccc(Sc2c3c(nc4ccccc24)CCCC3)cc1`, in that order: 5.82, above 12.5 µg/mL and above 25 µg/mL.
On to `CO[C@H]1/C=C/O[C@@]2(C)Oc3c(C)c(O)c4c(O)c(c(/C=N/N5CCN(C)CC5)c(O)c4c3C2=O)NC(=O)/C(C)=C\C=C\[C@H](C)[C@H](O)[C@@H](C)[C@@H](O)[C@@H](C)[C@H](OC(C)=O)[C@@H]1C` [RIFAMPIN], for which, in series [2], it took 0.75 µg/mL (≈ 0.911 µM) to inhibit growth (MIC).
For the molecule `Cc1ccc(Oc2c3c(nc4ccccc24)CCCC3)cc1C`, the logP in series [1] (read-out: LogP) was 6.23. For the same molecule, the minimum inhibitory concentration (MIC) in series [2] is above 12.5 µg/mL; in series [3], above 25 µg/mL.
In turn, `NNC(=O)c1ccncc1` [ISONIAZID] gave an MIC in series [2] of 0.65 µg/mL (≈ 4.74 µM).
As for `Clc1ccc(Oc2c3c(nc4ccccc24)CCCC3)cc1`, the logP in series [1] (read-out: LogP) came to 5.81. Moreover, the MIC in series [2] was above 12.5 µg/mL; in series [3] it was above 25 µg/mL.
As to `CCCCCCCCCCCCNc1c2c(nc3ccccc13)CCCC2`, the logP in series [1] (read-out: LogP) was found to be 7.79. In addition, the MIC in series [2] is 0.78 µg/mL (≈ 2.13 µM); in series [3] it was 6.25 µg/mL (≈ 17 µM).
